How the values were obtained:
Type in all cases: cell-based
[1] = system: NB4 cells; experiment: MTS cell viability, TET1-low control cell line; conditions: up to 500 nM, 48 hrs
Procedure: FIG. 1. […] Cell viability was analyzed by MTS 48 hours post-treatment. […] TET1 expression levels were detected by qPCR 48 hrs post-treatment. […] TET1 expression levels (e) and cell viability (f) were detected 24 hrs post-treatment. *, P<0.05, two-tailed t-test. MM6, MONOMAC-6. Error bar indicates SD of triplicate experiments.
MONOMAC-6, THP-1, KOCL-48, KASUMI-1, ML-2 and NB4 cells were purchased from ATCC (Manassas, Va.), and cultured as described previously (Jiang, X., et al. Blockade of miR-150 Maturation by MLL-Fusion/MYC/LIN-28 Is Required for MLL-Associated Leukemia. Cancer Cell 22, 524-535 (2012); Li, Z., et al. miR-196b directly targets both HOXA9/MEIS1 oncogenes and FAS tumour suppressor in MLL-rearranged leukaemia. (Li, Z., et al., miR-196b directly targets both HOXA9/MEISV oncogenes and FAS tumour suppressor in MLL-rearranged leukaemia, Nat Commun 2:688 (2012)). All cell lines were tested for mycoplasma contamination yearly using a PCR Mycoplasma Test Kit (PromoKine) and were proven to be mycoplasma negative. All cell lines were authenticated through STR profiling yearly. […]

[2] = system: wild-type mouse BM progenitor cells transduced with MLL-AF9; experiment: Viability of MLL-AF9-transduced wild-type BM progenitor cells; conditions: 48 hrs
Procedure: FIG. 5. […] Gene expression levels are shown. […] ChIP-qPCR assay was carried out 48 hrs after drug treatment. Enrichment of STAT3, STAT5, or IgG at the TET1 promoter region and other regions are shown. […] BM progenitor cells of wild-type or Tet1^−/− mice were retrovirally transduced with MLL-AF9. […] Relative cell viabilities are shown. (m) Cre-Tet1f mouse BM progenitor cells were retrovirally transduced with MLL-AF9. […] Relative cell viability is shown. (n-o) THP-1 (n) and MONOMAC-6 (o) cells were infected with lentivirus of pLenti-puro vector-based Tet1 construct. […] Relative cell viability is shown. *, P<0.05; **, P<0.01, two-tailed t-test. Error bar indicates SD of triplicate experiments.
siRNAs were transfected into MONOMAC-6 cells with Cell Line Nucleofector Kit V following program T-037, using the Amaxa Nucleofector Technology (Amaxa Biosystems, Berlin, Germany). Experiments were performed 48 h after transfection. Retrovirus infection of mouse BM progenitor cells were conducted as described previously with some modifications. Briefly, retrovirus vectors were co-transfected with pCL-Eco packaging vector (IMGENEX, San Diego, Calif.) into HEK293T cells using Effectene Transfection Reagent (Qiagen, Valencia, Calif.) to produce retrovirus. […]

[3] = system: binding of STAT3/5 to TET1 promoter; experiment: ChIP-qPCR in MONOMAC-6 cells; conditions: 500 nM, 48 hrs
Procedure: ChIP assay was conducted as described previously (Barry, S. P., et al., STAT3 modulates the DNA damage response pathway, Int J Exp Pathol 91:506-14 (2010)), with SABiosciences Corporation's ChampionChIP One-Day kit (Qiagen, Frederick, Md.) following the manufacturer's protocol. Chromatin from MONOMAC-6 cells were cross-linked, sonicated into an average size of ˜500 bp, and then immunoprecipitated with antibodies against STAT3 (Santa Cruz, Dallas, Tex.), STAT5 (BD Biosciences, San Jose, Calif.), or IgG (Abcam, Cambridge, Mass.). Purified DNA was amplified by real-time qPCR using primers targeting the promoter of TET1 as described before (Huang, H., et al., TET1 plays an essential oncogenic role in MLL-rearranged leukemia, Proc Natl Acad Sci USA 110:11994-99 (2013)). Sequences of qPCR primers are: Site 1 forward: 5′-[…]-3′ (SEQ ID NO: 3), reverse: 5′-[…]-3′ (SEQ ID NO: 4); Site 2 forward: 5′-[…]-3′ (SEQ ID NO: 5), reverse: 5′-[…]-3′ (SEQ ID NO: 6); Site 3 forward: 5′-[…]-3′ (SEQ ID NO: 7), reverse: 5′-[…]-3′ (SEQ ID NO: 8); Site 4 forward: 5′-[…]-3′ (SEQ ID NO: 9); reverse: 5′-[…]-3′ (SEQ ID NO: 10).

Row | Structure (SMILES) | inhibition of viability of NB4 cells [1] | cell viability [2] | binding of STAT3 and STAT5 on the TET1 loci/promoter [3]
1 | COc1cc(C(c2cc3c(cc2O)OCO3)N2CCCC2)cc(OC)c1OC (stereo not drawn) [NSC-370284, 6-(1-Pyrrolidinyl(3,4,5-trimethoxyphenyl)methyl)-1,3-benzodioxol-5-ol] | no significant inhibition | remarkable repression of cell viability | could be disturbed
2 | CC(C)(C)c1cc(C(c2cc3c(cc2O)OCO3)N2CCOCC2)cc(C(C)(C)C)c1O (stereo not drawn) [UC-514321, 6-{[4-Hydroxy-3,5-bis(2-methyl-2-propanyl)phenyl](4-morpholinyl)methyl}-1,3-benzodioxol-5-ol] | no inhibitory effect | remarkable repression of cell viability | remarkable repression
